Test results reported in US11883423B2, “Nucleobase analogue derivatives and their applications” (BOARD OF REGENTS, THE UNIVERSITY OF TEXAS SYSTEM, priority 2014, dated 2024).

Columns and labels:
[1] = parameters: species or system BALB/c mice; conditions: female, BALB/c, mouse, in vivo, iv, 75 mg/kg, 1 h
Description: The biodistribution of Gem-DHA was further evaluated in healthy BALB/c mice. Briefly, female BALB/c mice (Charles River, 14-16 weeks, n=3) were injected via the tail vein with Gem-DHA in a Tween 80/ethanol/water solution containing 5% (w/v) mannitol at a dose of 75 mg/kg. After 1 h, mice were euthanized to collect pancreas, lung, spleen, liver, heart, and kidneys. Gem-DHA was extracted from the samples and analyzed using HPLC. As a control, mice (n=3) were also injected with gemcitabine HCl (75 mg/kg) in 5% (w/v) mannitol solution and euthanized 1 h later to collect their pancreas. Gemcitabine was extracted using the following method. Briefly, once the pancreas was collected, it was weighed, placed into 0.25 ml of PBS containing 40 μg of tetrahydrouridine (a deoxycytidine deaminase inhibitor) and homogenized using a bead beater. Deoxyuridine (dU, 20 μl of 20 μg/ml) was then added into the homogenate as an internal standard. Acetonitrile was used to precipitate the proteins twice, and gemcitabine content in the supernatant was analyzed using HPLC. […] Therefore, it appeared that Gem-DHA preferred to distribute in pancreatic tissues.

[2] = system: Panc-02 cells; assay: Anti-proliferative activity, MTT assay, Panc-02 cells; assay type: cell-based; conditions: Mus musculus, Panc02, 24 h
Description: The anti-proliferative activity of Gem-DHA was evaluated in Panc-02, TC-1, Panc-1-Luc, and BxPC-3 cell lines. For Panc-02 and TC-1 cells, cells (1,500/well for Panc-02 and 3,000/well for TC-1) were seeded in 96-well plates and incubated at 37° C. and 5% CO2 overnight. The cells were then treated with various concentrations of Gem-DHA or other compounds for 24 h. For BxPC-3 and Panc-1-Luc cells, 3,000 and 1,000 cells/well were used, respectively, and cells were co-incubated with the Gem-DHA for 72 h. Cell viability was determined using an MTT assay as previously described (Naguib YW et al. Mol Pharm. 2014, 11(4), 1239-1249). Gemcitabine HCl was dissolved in cell culture medium, whereas Gem-DHA and DHA were dissolved in dimethylsulfoxide (DMSO). The values of IC50 were calculated using GraphPad Prism (GraphPad software, Inc., La Jolla, CA).

[3] = Octanol-water (PBS 7.4) partition coefficient; assay type: physicochemical; conditions: in octanol under the test conditions
Description: The octanol-water partition coefficient of Gem-DHA was determined using a previously reported method with minor modifications (Hsu CH et al. Pharm Res. 2003, 20(6), 918-925). Briefly, octanol and PBS (7.4, 0.01 M) were mutually saturated for 24 h. Gem-DHA was dissolved in octanol (0.4 mg/ml, PBS-saturated) and 10 μl of the solution were withdrawn and diluted with methanol to measure Gem-DHA concentration using HPLC (C1) PBS was added to octanol at a volume ratio (VPBS/Voct) of 20:1 into a sealed vial under nitrogen, and the mixture was agitated vigorously at room temperature using a horizontal orbital shaker at 250 rpm (Max Q 2000, Thermo Scientific, Waltham, Mass.) while protected from light. After 5 h, the mixture was centrifuged (14,000 rpm, 15 min) and the concentration of Gem-DHA in the octanol layer was determined using HPLC (C2). Partition coefficient (Koctiwater) was calculated using the following equation: […]
The partition coefficient (octanol/PBS 7.4) of Gem-DHA was also measured using an indirect method by determining the concentration of the drug in octanol, before and after partitioning.

[4] = Chemical stability in Tween 80/ethanol/water formulation (HPLC); assay type: physicochemical; conditions: for First order degradation rate constant k: aqueous formulation, mean ± SD (n=3)
Description: Gem-DHA was solubilized into an aqueous formulation that contains Tween 80 (10%, w/v) and ethanol (5.5%, v/v) (referred to as the Tween 80/ethanol/water formulation) to evaluate its in vivo activity. The stability of Gem-DHA in this formulation was evaluated in crimp-sealed amber glass vials under nitrogen atmosphere. Briefly, 150 μl of the Gem-DHA aqueous solution at a concentration of about 7 mg/ml were added to the amber glass vials under nitrogen atmosphere, and the vials were crimp-sealed with aluminum seals over rubber lids. At predetermined time intervals, 10 μl of the solution were diluted with 90 μl of methanol and mixed, and the concentration was measured using HPLC. Stability tests were carried out at room temperature (˜22° C.) or 4° C. in triplicates. Vitamin E was added in the formulation to a final concentration of 0.01% or 0.04% (v/v) to evaluate the effect of vitamin E on the chemical stability of Gem-DHA.
The degradation was slower at 4° C. […] Indeed, it was reported that a higher concentration of vitamin E may not necessarily have a higher anti-oxidative activity, as higher concentrations may sometimes lead to opposite effects (Owen S C. In: Rowe R C, Sheskey P J, Owen S C Eds, Handbook of Pharmaceutical Excipients. London, Pharmaceutical Press, 2006; 32-35).
To study the effect of temperature on the chemical stability of Gem-DHA, the Gem-DHA formulation in crimp-sealed vials under nitrogen was stored in room temperature, 37° C., or 60° C., protected from light. Sampling and analyses were carried out at pre-determined time points as described above. The first order degradation reaction equation was used to calculate the values of the reaction rate (k) at different temperatures (Table 2). An Arrhenius plot was constructed by plotting the In k values vs. 1/T to calculate the activation energy (Ea, in kcal/mol). The activation energy of the chemical reaction was calculated to be 12.86 kcal/mol (FIG. 2C).

[5] = Plasma pharmacokinetics after i.v. injection; assay type: in vivo, C57BL/6 mice; conditions: 75 mg/kg
Description: Healthy female C57BL/6 mice (6-8 weeks) were injected intravenously (i.v.) with Gem-DHA solution at a dose of 75 mg/kg via the tail vein. At pre-determined time intervals (5, 15, 30, 60, 120, and 180 min), 3 mice were euthanized at each time point to collect plasma samples. Gem-DHA was extracted twice using ethyl acetate and analyzed using HPLC. Data were analyzed using the Pharsight WinNonlin software (Sunnyvale, Calif.).

In the case of `CC/C=C\C/C=C\C/C=C\C/C=C\C/C=C\C/C=C\CCC(=O)Nc1ccn(C2OC(CO)C(O)C2(F)F)c(=O)n1` (centres unmarked) [Gem-DHA, 4-(N)-Docosahexaenoyl Difluorodeoxycytidine], the “Percent of injected compound recovered in each gram of pancreas” value [1] is reported as 0.37±0.18%, the IC50 [2] is reported as 34 pM and the “Time stable in octanol” value [3] is reported as “at least 18 h”. The “Degradation in Tween 80/ethanol/water formulation” value ([4]; 4° C., compared with room temperature) was “slower”, the “Activation energy (Ea) of the degradation” value ([4]; Arrhenius plot of ln k vs 1/T) was 12.86 kcal/mol and the “First order degradation rate constant k” value ([4]; 37° C.) was 0.042 ± 0.005 h⁻¹. The “First order degradation rate constant k” value ([4]; 60° C.) was 0.106 ± 0.009 h⁻¹, the “First order degradation rate constant k” value ([4]; room temperature (~22° C.)) was 0.018 ± 0.001 h⁻¹ and the “Degradation in Tween 80/ethanol/water formulation” value ([4]; room temperature (~22° C.)) was “found to degrade at room temperature”. The “Degradation in Tween 80/ethanol/water formulation” value ([4]; with vitamin E 0.01% or 0.04%, 0.01% more effective than 0.04%) was “slower in the presence of vitamin E” and the “Elimination from plasma (model)” value [5] was “follows a bi-exponential model”.
